Test results taken from ChEMBL document CHEMBL1201862, “PubChem BioAssay data set” (2004).
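These data come from cells grown in 96-well plates and exposed to compound for 48 hours at five concentrations. The concentration for 50% growth inhibition is given as GI50.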 Calls of active or inactive are those of the source. No stated cut-off is given here; in the data, active = GI50 up to about 1.1 µM and inactive = higher.

Key:
Assay in all cases: NCI anticancer screen, dose series, 48 h
[1] = system: HCC 2998
[2] = system: EKVX
[3] = system: SF-268
[4] = system: UO-31
[5] = system: OVCAR-4
[6] = system: SK-OV-3
[7] = system: RPMI-8226
[8] = system: NCI-H226
[9] = system: RXF 393
[10] = system: Malme-3M
[11] = system: IGROV-1
[12] = system: T47D
[13] = system: SN12C
[14] = system: HCT-116
[15] = system: BT-549
[16] = system: LOX IMVI
[17] = system: HL-60
[18] = system: CAKI-1
[19] = system: OVCAR-3
[20] = system: ACHN

Measured: GI50

COC(=O)c1ccc(NCc2cc(O)ccc2O)cc1O
inactive: [1] 13.8 µM | [2] 13.5 µM | [3] 7.29 µM | [4] 1.82 µM | [5] 13.2 µM | [6] 13.9 µM | [7] 1.17 µM | [8] 14 µM | [9] 7.28 µM | [10] 16.4 µM | [11] 8.97 µM | [12] 3.4 µM | [13] 8.38 µM | [14] 17.5 µM | [15] 3.44 µM | [16] 13 µM | [17] 1.67 µM | [18] 6.78 µM | [19] 3.6 µM | [20] 9.68 µM

O=C(Cn1ccnc1[N+](=O)[O-])N(CCO)CCO
inactive: [1] > 250 µM | [2] > 250 µM | [3] > 250 µM | [4] > 250 µM | [5] > 250 µM | [6] > 250 µM | [7] 25 µM | [8] > 250 µM | [9] > 250 µM | [10] 135 µM | [11] > 250 µM | [12] > 250 µM | [13] > 250 µM | [14] > 250 µM | [15] > 250 µM | [16] > 1250 µM | [17] > 250 µM | [18] > 250 µM | [19] > 250 µM | [20] > 250 µM

O=c1cc(N2CCOCC2)[nH]c(=O)n1-c1ccc(F)cc1
inactive: [1] > 100 µM | [2] > 100 µM | [3] > 100 µM | [5] > 100 µM | [6] > 100 µM | [7] > 100 µM | [8] > 100 µM | [9] > 100 µM | [10] > 100 µM | [11] > 100 µM | [12] > 100 µM | [13] > 100 µM | [14] > 100 µM | [15] > 100 µM | [16] > 100 µM | [17] > 100 µM | [18] > 100 µM | [19] > 100 µM | [20] > 100 µM

Nc1n[n+]2cc(-c3ccccc3)n(CC(=O)c3ccccc3)c2s1
inactive: [1] 15 µM | [2] 39.6 µM | [3] 20.3 µM | [4] 76.2 µM | [6] > 100 µM | [7] 17.1 µM | [8] 32.4 µM | [9] 20.4 µM | [10] 12.2 µM | [11] 70.8 µM | [12] 22.6 µM | [13] 42.6 µM | [14] 16.7 µM | [15] 19.6 µM | [16] 17.9 µM | [17] 35.5 µM | [18] > 100 µM | [19] 23.8 µM | [20] 65.2 µM

CC1(C)C2CC3C4CC5(Nc6ccccc6C5N41)[C@]3(C)CC2=O (stereo partly drawn)
inactive: [1] > 50 µM | [2] > 50 µM | [3] > 50 µM | [4] > 50 µM | [5] > 50 µM | [7] > 50 µM | [8] > 50 µM | [9] > 50 µM | [10] > 50 µM | [11] > 50 µM | [12] 9.82 µM | [13] > 50 µM | [14] > 50 µM | [15] > 50 µM | [16] > 50 µM | [17] > 50 µM | [18] > 50 µM | [19] > 50 µM | [20] > 50 µM

c1ccc2c(c1)Nc1nc3nonc3nc1N2
inactive: [1] > 100 µM | [2] > 100 µM | [3] > 100 µM | [4] > 100 µM | [5] 62.5 µM | [6] > 100 µM | [7] > 100 µM | [8] > 100 µM | [9] > 100 µM | [10] > 100 µM | [11] > 100 µM | [12] > 100 µM | [13] > 100 µM | [14] > 100 µM | [15] > 100 µM | [16] > 100 µM | [17] > 100 µM | [18] > 100 µM | [20] > 100 µM

CC1=NN2C(=N)/C(=C/c3ccco3)C(=O)N=C2S1
inactive: [1] > 100 µM | [2] > 100 µM | [3] > 100 µM | [4] > 100 µM | [5] > 100 µM | [6] > 100 µM | [7] > 100 µM | [8] > 100 µM | [9] > 100 µM | [10] > 100 µM | [11] > 100 µM | [12] > 100 µM | [13] > 100 µM | [14] > 100 µM | [15] > 100 µM | [16] > 100 µM | [17] > 100 µM | [18] > 100 µM | [19] > 100 µM | [20] > 100 µM

COc1cc(/C=C2\C(=O)N(c3cccc([N+](=O)[O-])c3)C(c3ccccc3)S2(=O)=O)cc(OC)c1OC (stereo not drawn)
inactive: [1] > 100 µM | [2] > 100 µM | [4] > 100 µM | [5] 80 µM | [6] > 100 µM | [7] 64.9 µM | [8] > 100 µM | [9] > 100 µM | [10] > 100 µM | [11] > 100 µM | [12] 63.7 µM | [13] > 100 µM | [14] > 100 µM | [15] > 100 µM | [16] > 100 µM | [17] 84.7 µM | [18] > 100 µM | [19] > 100 µM | [20] > 100 µM

CCOP(=O)(C/C=C/Cn1nc(Br)c(=O)[nH]c1=O)OCC
inactive: [1] > 100 µM | [2] > 100 µM | [3] > 100 µM | [4] > 100 µM | [5] > 100 µM | [7] > 100 µM | [8] > 100 µM | [9] > 100 µM | [10] > 100 µM | [11] > 100 µM | [12] > 100 µM | [13] > 100 µM | [14] > 100 µM | [15] > 100 µM | [16] > 100 µM | [17] > 100 µM | [18] > 100 µM | [19] > 100 µM | [20] > 100 µM

Cc1cc(S(=O)(=O)Nc2nc(N)n[nH]2)c(S)cc1Cl
inactive: [1] > 10 µM | [2] > 10 µM | [3] > 10 µM | [5] > 10 µM | [6] > 10 µM | [7] > 10 µM | [8] > 10 µM | [9] > 10 µM | [10] > 10 µM | [11] > 10 µM | [12] > 10 µM | [13] > 10 µM | [14] > 10 µM | [15] > 10 µM | [16] > 10 µM | [17] > 10 µM | [18] > 10 µM | [19] > 10 µM | [20] > 10 µM
